Test results published in patent US9408853B2, “Iridium/rhodium anti-cancer compounds” (University of Warwick, priority 2010, dated 2016).

Experiments:
[1] = Kinetics of hydrolysis followed by 1H NMR; format: physicochemical; details: for k (hydrolysis): 0.2 mM, 5% MeOD-d4/95% D2O, pH* 3
Description: Kinetics for Hydrolysis. Although complexes ZL01-ZL04, ZL07, ZL38 and ZL43 hydrolyzed too rapidly to monitor by ^1H NMR, The kinetics of hydrolysis for complexes ZL25, ZL33, ZL37 and ZL54 were followed by ^1H NMR at different temperatures. For this, solutions of the complexes with a final concentration of 0.2 mM in 5% MeOD-d4/95% D2O (v/v) were prepared by dissolution of the complexes in MeOD-d4 followed by rapid dilution using D2O with a pH* of about 3 (acidified with HClO4), so that the aqua ligand was not deprotonated. ^1H NMR spectra were taken after various time intervals. The rates of hydrolysis were determined by fitting plots of concentrations (determined from ^1H NMR peak integrals) versus time to a pseudo first-order equation using ORIGIN version 7.0. The Arrhenius activation energy (Ea), activation enthalpies (ΔH^¢), and activation entropy (ΔS^‡) for compounds ZL25, ZL33, ZL37 and ZL54 were determined from the slopes of the Arrhenius and intercepts of Eyring plots.
The rates of hydrolysis of compounds ZL01-ZL04, ZL07, ZL25, ZL33, ZL37, ZL38, ZL43 and ZL54 in a 5% MeOD-d4/95% D2O were monitored by ^1H NMR at different temperature from 278 to 298 K by the observation of new peaks over time due to aqua adduct formation. Five percent MeOD was used to improve solubility, and acidic conditions (D2O, pH* 3) were used to prevent the deprotonation of the aqua complex as a secondary reaction. […] The percentage of aqua peak formation for ZL25, ZL33, ZL37 and ZL54 was plotted against time and was fitted to pseudofirst order kinetics (FIG. 3), and their halflife times were calculated (Table 1). The Arrhenius activation energy (Ea), activation enthalpy (ΔH^¢), and activation entropy (ΔS^‡) of compound ZL25, ZL33, ZL37 and ZL54 are listed in Table 4. The large negative ΔS^‡value for compound ZL54 is notable. The extent of hydrolysis at equilibrium is medium for all compounds, ranged from 30% to 60%.

[2] = tested on: human ovarian A2780 cancer cells; assay: Cancer cell cytotoxicity, SRB assay; format: cell-based; details: 24 h exposure, 72 h recovery, SRB; read-out: A2780 IC50
Outline: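 Cells plated at 5000/well were dosed on day 3 with Ir^III complexes (0.05–100 μM, from DMSO stocks diluted into saline and medium) for 24 h. After washout they grew for 72 h in fresh medium before SRB protein staining as a survival read-out. Two independent experiments of three replicates each.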

Cc1c(C)c(-c2ccccc2)[c-](C)c1C.F[P-](F)(F)(F)(F)F.[Cl-].[Ir+3].c1cnc2c(c1)ccc1cccnc12 (stereo not shown) [ZL33, [(η^5-C5Me4C6H5)Ir(phen)Cl]PF6]
k (hydrolysis) ([1]; 278 K): 0.033 min⁻¹
k (hydrolysis) ([1]; 283 K): 0.0693 min⁻¹
k (hydrolysis) ([1]; 288 K): 0.1264 min⁻¹
Ea (Arrhenius activation energy of hydrolysis) ([1]; from Arrhenius plot): 20.5 kcal/mol
ΔH^‡ (activation enthalpy of hydrolysis) ([1]; from Eyring plot): 20.06 kcal/mol
ΔS^‡ (activation entropy of hydrolysis) ([1]; from Eyring plot): 29.3 J K^−1mol^−1
IC50 [2]: 6.7 µM
